# Source: article PMC4506092, “Utilizing Chemical Genomics to Identify Cytochrome b as a Novel Drug Target for Chagas Disease” (PLoS Pathogens, 2015)
# Columns and labels:
# [1] = tested on: T. cruzi epimastigote respiration (GNF7686-resistant, DR); assay: T. cruzi epimastigote respiration (oxygen consumption, MitoXpress-Xtra), GNF7686-resistant; assay type: cell-based, Trypanosoma cruzi; details: for IC50: Trypanosoma cruzi, intact epimastigotes
# Procedure: (§1) GNF7686 and cytochrome b inhibitors (0.2% DMS0 final concentration) were added to 384-well assay plates containing 20 μL of assay buffer (250 mM sucrose, 15 mM KCl, 5 mM MgCl2, 1 mM EGTA, 30 mM K2HPO4, pH 7.4) and allowed to dissolve for two hours. Meanwhile, T. cruzi epimastigotes were harvested (800 × g for 5 min at 4°C), washed twice with buffer A (10 mM Tris-HCl, pH = 7.4, 0.23 M mannitol, 0.07 M sucrose, 0.2 mM EDTA, 0.2% bovine serum albumin, 0.5 mM phenylmethanesulfonyl fluoride), and finally resuspended in buffer A at a final concentration of 150 × 10^6 epimastigotes / mL. Next, 20 μL of T. cruzi epimastigote suspension (3 x 10^6 parasites) was added to each sample well, and then 15 μL of MitoXpress-Xtra probe (Cayman Chemicals) was added (final assay volume of 60 μL). Probe phosphorescence is quenched in the presence of oxygen and is inversely proportional to the amount of oxygen present in the solution. HS mineral oil (20 μL, Cayman Chemicals) was added to wells to prevent oxygen exchange between the assay buffer and air. Blank wells containing assay buffer without parasites, corresponding compound, and mineral oil were prepared in parallel and values were subtracted from sample values to specifically measure changes in oxygen concentration caused by parasite respiration. All sample and blank wells were prepared in duplicate. The assay plate was transferred to a Gemini XPS fluorescence plate reader (Molecular Devices) and read at 3 minute intervals at excitation and emission wavelengths of 380 nm and 650 nm, respectively, for 30 minutes at 37°C. The slope for the linear portion of time course of fluorescence increase (rate of oxygen consumption) was calculated after subtraction of blank well values. Obtained slope values were normalized to the slope obtained for 0.2% DMSO, and plotted against the corresponding compound concentration for half maximal inhibitory concentration (IC50) value determination.
# [2] = tested on: T. cruzi epimastigote respiration (wild-type); assay: T. cruzi epimastigote respiration (oxygen consumption, MitoXpress-Xtra), wild-type; assay type: cell-based; details: Trypanosoma cruzi; intact epimastigotes
# Procedure: as §1, with “HS mineral oil (20 μL, Cayman Chemicals) was added to wells to prevent oxygen exchange between the assay buffer and air. Blank wells containing assay buffer without parasites, corresponding compound, and mineral oil were prepared in parallel and values were subtracted from sample values to specifically measure changes in oxygen concentration caused by parasite respiration. All sample and blank wells were prepared in duplicate.” left out, “Obtained slope values were normalized to the slope obtained for 0.2% DMSO, and plotted against the corresponding compound concentration for half maximal inhibitory concentration (IC50) value determination.” left out
# [3] = tested on: T. cruzi mutant complex III (cytochrome b L197F); assay: T. cruzi complex III activity (decylubiquinol / cytochrome c reaction), GNF7686-resistant; assay type: biochemical, Trypanosoma cruzi; details: digitonin-permeabilized epimastigotes
# Procedure: T. cruzi epimastigotes ([…], density of 5 × 10^7 parasites / mL) were harvested by centrifugation (800 × g for 5 minutes at 4°C) and resuspended at 10 mg / mL of protein in buffer A containing 0.1 mg digitonin / mg protein. The parasites were then incubated with the detergent for 10 minutes at 26°C. The pellet fraction was collected by centrifugation (13,000 × g for 5 min at 4°C) and immediately used in the complex III assay.
# Complex III activity was monitored using a coupled decylubiquinol / cytochrome c reaction. Decylubiquinone was first reduced to decylubiquinol as described. […] The reduction of cytochrome c was monitored at 550 nm using the SpectraMax Plus384 absorbance microplate reader. Blank samples containing all components excluding decylubiquinol were processed in parallel and absorbance values were subtracted from sample absorbance values to specifically measure […] reduction of cytochrome c. All sample and blank wells were prepared in triplicate. For IC50 determination, the slope of the linear portion of the corrected respiration trace was determined, and normalized to the slope obtained for 0.2% DMSO condition.
# [4] = tested on: rat skeletal muscle mitochondria respiration; assay: Respiration of isolated rat skeletal muscle mitochondria (oxygen consumption); assay type: biochemical; details: mitochondria from rat skeletal muscle
# Procedure: GNF7686 and cytochrome b inhibitors (0.2% DMS0 final concentration) were added to 384-well assay plates containing 20 μL of assay buffer (250 mM sucrose, 15 mM KCl, 5 mM MgCl2, 1 mM EGTA, 30 mM K2HPO4, pH 7.4) and allowed to dissolve for two hours. Meanwhile, T. cruzi epimastigotes were harvested (800 × g for 5 min at 4°C), washed twice with buffer A (10 mM Tris-HCl, pH = 7.4, 0.23 M mannitol, 0.07 M sucrose, 0.2 mM EDTA, 0.2% bovine serum albumin, 0.5 mM phenylmethanesulfonyl fluoride), and finally resuspended in buffer A at a final concentration of 150 × 10^6 epimastigotes / mL. […] The assay plate was transferred to a Gemini XPS fluorescence plate reader (Molecular Devices) and read at 3 minute intervals at excitation and emission wavelengths of 380 nm and 650 nm, respectively, for 30 minutes at 37°C. The slope for the linear portion of time course of fluorescence increase (rate of oxygen consumption) was calculated after subtraction of blank well values. […]
# Sprague Dawley rats were euthanized and skeletal muscle (from hind legs) was removed and stored in CP1 buffer (0.1 M KCl, 0.05 M Tris, 2 mM EGTA, pH 7.4 at 4°C) on ice. […] Respiration in isolated rat mitochondria was measured using the same protocol as described for T. cruzi epimastigotes using 150 μg protein / sample.
# [5] = tested on: T. cruzi intracellular amastigotes (wild-type); assay: T. cruzi intracellular amastigote efficacy assay in NIH/3T3 cells, wild-type strain; assay type: cell-based; details: Trypanosoma cruzi, NIH3T3, intracellular amastigotes in NIH/3T3, 48-hour treatment, read-out: Amastigote EC50, WT
# Procedure: To determine compound efficacy on T. cruzi intracellular amastigotes, NIH/3T3 cells were seeded (1,000 cells / well, 40 μL) into microscopy-grade, clear bottom, 384-well plates (Greiner) in RPMI-1640 medium containing 5% heat-inactivated fetal bovine serum and 100 IU penicillin / 100 μg streptomycin per mL. Plates were incubated overnight at 37°C / 5% CO2. Cells were infected with T. cruzi trypomastigotes at a multiplicity of infection (MOI) of 10 for the wild-type strain, and 20 for the GNF7686-resistant mutant strain. After six hours of infection (at 37°C / 5% CO2), the plates were washed by aspirating the medium and replacing with fresh screening medium to remove remaining extracellular trypomastigotes. The plates with infected cells were incubated overnight (37°C / 5% CO2) and compounds dissolved in DMSO were added to plate wells on the following day (0.2% DMSO final concentration). […] The plates were then scanned using the Evotec Opera High Content Screening System (Perkin Elmer) and amastigote proliferation was assessed by counting parasites within the 3T3 cells using CellProfiler version 2.1.0 cell image analysis software. […]
Structure (SMILES),"Loss of potency on respiration, GNF7686-resistant vs wild-type [1]",IC50 [1] [nM],IC50 [2] [nM],"Loss of potency on complex III, mutant vs wild-type [3]",IC50 ([4]; read-out: Rat mitochondrial respiration IC50) [nM],EC50 [5] [nM],Mammalian (rat) mitochondrial respiration: no effect on oxygen consumption up to [4] [µM]
CCCCCC[C@H]1C(=O)O[C@H](C)[C@H](NC(=O)c2cccc(NC=O)c2O)C(=O)O[C@@H](C)[C@@H]1OC(=O)CC(C)C [Antimycin A],~ 7 fold,270,40,~ 100 fold,810,,
O=C(Cn1ccnc1[N+](=O)[O-])NCc1ccccc1 [Benznidazole],,,,,,1400 ± 170,
CCc1c(C)c(C#N)c2nc3ccccc3n2c1O [GNF7686],,5200,210,20 fold,,150 ± 30,> 25
